Key:
[1] = system: PC1 conditional knockout mice (PKD model); test: Suppression of increase in renal volume and decrease in renal function in PC1 conditional knockout mice; format: in vivo, mouse
Procedure: The PC1 conditional knockout mice, a PKD model, were used to evaluate the effects of tolvaptan and compound 4 in Test Example 1 on (a) renal volume, (b) body weight, and (c) urine volume in PC1 conditional knockout mouse.
Tamoxifen was orally administered to PC1 conditional knockout mice at a dose of 3 mg/kg for 3 days from day 21 after birth. The PC1 conditional knockout mice (5 weeks of age at the start of this test) were grouped into 3 groups of 15 mice each. Compound 4 or tolvaptan was administered as a single agent to the test compound administration group. The administration period was 16 weeks, and they were administered subcutaneously once daily. Compound 4 was administered at 33-40 mg/kg per dose and tolvaptan was administered at 25-30 mg/kg per dose. Compound 4 and tolvaptan were administered after dissolved in 50% DMSO/50% glycerol. A group of mice to which tamoxifen was not administered was provided as a normal control group (Normal Control) (N=7). The 50% DMSO/50% glycerol was administered to the normal control group and the Vehicle group of PC1 conditional knockout mice at 1 mL/kg.
The left renal volume (renal volume (mL)) of mice was calculated by the following formula using echography 16 weeks after the start of administration of the test compound.
After that, euthanasia treatment was performed. In addition, the body weight (Body weight (g)) of mice was measured every 7 days after the start of administration of the test compound. Furthermore, the volume of urine (Urine volume (mL/day)) was calculated from the specific gravity and measured weight of urine 16 weeks after the start of administration of the test compound.

human PiT1 = biological target: T1, human PiT1 (Homo sapiens, UniProt Q8WUM9); test: 33PO4 uptake inhibition in CHO cells expressing human PiT1; format: cell-based; settings: CHO cells transiently expressing human PiT1, pH 6.5
T1 construct: expressed in transfected cells; host or cells: CHO cells, transient transfection with Fugene HD
T1 sequence (Q8WUM9 1-679): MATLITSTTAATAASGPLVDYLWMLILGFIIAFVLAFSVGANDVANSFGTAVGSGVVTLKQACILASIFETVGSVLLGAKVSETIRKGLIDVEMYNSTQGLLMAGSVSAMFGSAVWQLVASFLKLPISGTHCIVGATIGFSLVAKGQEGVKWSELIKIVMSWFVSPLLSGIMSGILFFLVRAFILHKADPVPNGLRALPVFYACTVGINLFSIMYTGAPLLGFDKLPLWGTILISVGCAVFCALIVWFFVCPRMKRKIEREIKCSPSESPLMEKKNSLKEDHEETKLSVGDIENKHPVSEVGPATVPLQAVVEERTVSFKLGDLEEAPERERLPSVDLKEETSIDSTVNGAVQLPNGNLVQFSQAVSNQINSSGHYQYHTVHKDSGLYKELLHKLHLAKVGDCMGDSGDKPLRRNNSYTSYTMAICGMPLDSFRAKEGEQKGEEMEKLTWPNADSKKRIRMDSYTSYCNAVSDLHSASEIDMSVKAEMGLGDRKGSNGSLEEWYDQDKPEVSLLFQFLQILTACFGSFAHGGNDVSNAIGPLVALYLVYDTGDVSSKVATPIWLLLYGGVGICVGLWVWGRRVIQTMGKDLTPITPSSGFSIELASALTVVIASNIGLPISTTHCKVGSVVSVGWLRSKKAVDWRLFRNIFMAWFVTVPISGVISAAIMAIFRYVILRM
Procedure: For transient expression, human NaPi-IIb expression plasmids, human PiT1 expression plasmids, human PiT2 expression plasmids, and Fugene HD Transfection (Promega Corporation) were added to CHO cells using a 96-well plate, and the plate was incubated in a C02 incubator for 16 hours. The medium was replaced with buffer A (145 mM choline chloride, 3 mM KCl, 1 mM CaCl2), 0.5 mM MgCl2, 5 mM glucose, 5 mM MES, (pH 6.5)), and then replaced with buffer B (145 mM NaCl, 3 mM KCl, 1 mM CaCl2, 0.5 mM MgCl2, 5 mM glucose, 5 mM MES (pH 6.5)) to which a test compound was added at the final concentration of 0.01, 0.03, 0.1, 0.3, 1, 3, 10, or 30 μM, buffer A to which DMSO was added, or buffer B to which DMSO was added. After a certain time, a 1/20 amount of buffer A containing ^33PO4 (PerkinElmer Japan G. K.) was added and reacted at room temperature. After washing with ice-cooled buffer A, a liquid scintillator (MicroScint™-20, item number 6013621, PerkinElmer Japan G.K.) was added, and the ^33PO4 uptake amount was measured with the top count (Top Count NXT, PerkinElmer Japan G.K.). The inhibition rate was determined by the following formula. Here, a certain time was set to 10 minutes. […]

human NaPi-IIb = biological target: T2, human NaPi-IIb (Homo sapiens, UniProt O95436); test: 33PO4 uptake inhibition in CHO cells expressing human NaPi-IIb; format: cell-based; settings: CHO cells transiently expressing human NaPi-IIb, pH 6.5
T2 construct: expressed in transfected cells; host or cells: CHO cells, transient transfection with Fugene HD
T2 sequence (O95436 1-690): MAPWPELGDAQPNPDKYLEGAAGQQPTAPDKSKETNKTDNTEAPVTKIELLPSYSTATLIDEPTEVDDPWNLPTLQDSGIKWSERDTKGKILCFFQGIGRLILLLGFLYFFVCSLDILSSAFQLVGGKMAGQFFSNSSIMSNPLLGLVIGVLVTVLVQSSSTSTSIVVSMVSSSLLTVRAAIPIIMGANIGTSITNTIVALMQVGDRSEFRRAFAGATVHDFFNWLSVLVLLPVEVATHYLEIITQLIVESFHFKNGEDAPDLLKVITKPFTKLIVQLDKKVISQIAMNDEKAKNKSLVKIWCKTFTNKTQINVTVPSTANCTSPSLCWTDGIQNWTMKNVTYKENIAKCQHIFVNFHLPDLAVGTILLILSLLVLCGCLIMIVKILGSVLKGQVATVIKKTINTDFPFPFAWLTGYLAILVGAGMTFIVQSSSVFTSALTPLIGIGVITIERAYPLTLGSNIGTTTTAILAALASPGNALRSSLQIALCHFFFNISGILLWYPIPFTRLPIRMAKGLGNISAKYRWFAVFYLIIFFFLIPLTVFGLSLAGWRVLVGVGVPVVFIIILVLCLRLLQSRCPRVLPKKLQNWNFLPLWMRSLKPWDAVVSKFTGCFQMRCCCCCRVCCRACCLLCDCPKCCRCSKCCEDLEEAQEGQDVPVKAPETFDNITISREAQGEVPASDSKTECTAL
Procedure: For transient expression, human NaPi-IIb expression plasmids, human PiT1 expression plasmids, human PiT2 expression plasmids, and Fugene HD Transfection (Promega Corporation) were added to CHO cells using a 96-well plate, and the plate was incubated in a C02 incubator for 16 hours. The medium was replaced with buffer A (145 mM choline chloride, 3 mM KCl, 1 mM CaCl2), 0.5 mM MgCl2, 5 mM glucose, 5 mM MES, (pH 6.5)), and then replaced with buffer B (145 mM NaCl, 3 mM KCl, 1 mM CaCl2, 0.5 mM MgCl2, 5 mM glucose, 5 mM MES (pH 6.5)) to which a test compound was added at the final concentration of 0.01, 0.03, 0.1, 0.3, 1, 3, 10, or 30 μM, buffer A to which DMSO was added, or buffer B to which DMSO was added. After a certain time, a 1/20 amount of buffer A containing ^33PO4 (PerkinElmer Japan G. K.) was added and reacted at room temperature. After washing with ice-cooled buffer A, a liquid scintillator (MicroScint™-20, item number 6013621, PerkinElmer Japan G.K.) was added, and the ^33PO4 uptake amount was measured with the top count (Top Count NXT, PerkinElmer Japan G.K.). The inhibition rate was determined by the following formula. Here, a certain time was set to 10 minutes. The phrase “a 1/20 amount of buffer A containing ^33PO4 (PerkinElmer Japan G.K.) was added” refers to “buffer A containing ^33PO4 (PerkinElmer Japan G.K.) was added in an amount of 1/20 of the amount of solution filling the medium”.
The 50% ^33PO4-uptake inhibition concentrations (ICs) (UM) in a cell expressing human NaPi-Ilb, human PiT1, and human PiT2 were calculated from a straight line through two points sandwiching 50% inhibition rate. It should be noted that compounds 1 and 2 were not measured for baman PiT1 and human PiT2, which was indicated as “-” in Table 1.

Urine volume ([1]; 16 weeks after start of administration, compared to tolvaptan): no increase in urine volume
IC50 (human PiT1): > 30 µM
IC50 (human NaPi-IIb): 31 nM
SMILES: CCCN([C@H]1CC[C@H](C(=O)[O-])CC1)S(=O)(=O)c1cccc(C(=O)Nc2sc3c(c2C(=O)Nc2ccc(CCCc4ccc(C(=O)[O-])cc4)cc2)CCCC3)c1.[Na+].[Na+] [Compound 4, Disodium; 4-[3-[4-[[2-[[3-[(4-carboxylatocyclohexyl)-propylsulfamoyl]benzoyl]ami-no]-4,5,6,7-tetrahydro-1-benzothiophene-3-carbonyl]amino]phenyl]pro-pyl]benzoic acid]
Body weight (weight loss) ([1]; 16 weeks administration, compared to tolvaptan): less weight loss
Suppression effect on decrease in renal function ([1]; 33-40 mg/kg s.c. once daily, 16 weeks): suppression effect
Suppression effect on increase in renal volume ([1]; 33-40 mg/kg s.c. once daily, 16 weeks, left renal volume by echography): suppression effect

Reference: patent US20250302833A1, “PHARMACEUTICAL COMPOSITION FOR TREATING OR PREVENTING CYSTIC DISEASE” (CHUGAI SEIYAKU KABUSHIKI KAISHA, priority 2022, published 2025)
